By IC50 is commonly meant the concentration needed to halve the response being measured. A high value points to lower potency.

Our source for the IC50 and DC50 values is patent US11773085B2 (Foghorn Therapeutics Inc., priority 2018, dated 2023).

In assay [1] the target is BRD9 bromodomain (Homo sapiens (Human), UniProt Q9H8M2). As to the kind of experiment: BRD9 bromodomain TR-FRET competition binding assay. The note with it: 3 nM Flag-BRD9, 3.75 nM biotinylated ligand, 90 minutes at room temperature. On the procedure:
Cleaved His tag was removed by purification.
A mixture of biotinylated-ligand and SureLight™ Allophycocyanin-Streptavidin (APC-SA, PerkinElmer AD0201) in 50 mM HEPES (pH 7.4), 50 mM NaCl, 1 mM TCEP (pH 7), 0.01% (v/v) Tween-20, 0.01% (w/v) bovine serum albumin was added to a white 384-well PerkinElmer Proxiplate Plus plate. DMSO or 3-fold serially diluted compounds were then added to the Proxiplate followed by addition of Flag-BRD9. After a 10 minute incubation at room temperature, Eu-W1024 anti-FLAG (PerkinElmer, AD0273) was added.
A general note: Time-resolved FRET reads energy transfer from a long-lived donor to a nearby acceptor.

Assay [2] addresses Nanoluciferase-BRD9 fusion protein (3×FLAG-NLuc-BRD9) (Homo sapiens (Human), UniProt Q9H8M2). As to the kind of experiment: SYO1 BRD9 NanoLuc degradation assay. The note with it: SYO-1 cells expressing 3×FLAG-NLuc-BRD9, 6 hours, 1 μM top dose; read-out: SYO1 BRD9-NanoLuc degradation IC50. Format: cell-based. How it is done: A stable SYO-1 cell line expressing 3×FLAG-NLuc-BRD9 was generated. On day 0 cells were seeded in 30 μL media into each well of 384-well cell culture plates. The seeding density was 8000 cells/well. […] Subsequently plates were incubated for 6 hours in a standard tissue culture incubator and equilibrated at room temperature for 15 minutes. Nanoluciferase activity was measured by adding 15 μL of freshly prepared Nano-Glo Luciferase Assay Reagent (Promega N1130), shaking the plates for 10 minutes and reading the bioluminescence using an EnVision reader.
The Inhibition % was calculated using the following formula: % Inhibition=100×(LumHC−LumSample)/(LumHC−LumLC). DMSO treated cells are employed as High Control (HC) and 1 μM of a known BRD9 degrader standard treated cells are employed as Low Control (LC).

Molecules are shown by their SMILES.

Compound `COc1cc(-c2cn(C)c(=O)c3cnccc23)cc(OC)c1CN(C)CC(=O)N(C)CCOCCOCCNc1ccc2c(c1)C(=O)N(C1CCC(=O)NC1=O)C2=O` (stereo not shown) [Compound D16, 2-((2,6-dimethoxy-4-(2-methyl-1-oxo-1,2-dihydro-2,7-naphthyridin-4-yl)benzyl)(methyl)amino)-N-(2-(2-(2-((2-(2,6-dioxopiperidin-3-yl)-1,3-dioxoisoindolin-5-yl)amino)ethoxy)ethoxy)ethyl)-N-methylacetamide] gave an IC50 in assay [1] of 10 to 100 nM. In addition, the DC50 in assay [2] was 10 to 100 nM.
The compound `COc1cc(-c2cn(C)c(=O)c3cnccc23)cc(OC)c1CN(C)CC(=O)N(C)CCOCCOCCNc1cccc2c1C(=O)N(C1CCC(=O)NC1=O)C2=O` (stereo not shown) [Compound D13, 2-((2,6-dimethoxy-4-(2-methyl-1-oxo-1,2-dihydro-2,7-naphthyridin-4-yl)benzyl)(methyl)amino)-N-(2-(2-(2-((2-(2,6-dioxopiperidin-3-yl)-1,3-dioxoisoindolin-4-yl)amino)ethoxy)ethoxy)ethyl)-N-methylacetamide] registered an IC50 in assay [1] of 10 to 100 nM. Besides, the DC50 in assay [2] was in the range of 10 to 100 nM.
In the case of `COc1cc(-c2cn(C)c(=O)c3cnccc23)cc(OC)c1CN(C)C(=O)CCCCOc1cccc2c1C(=O)N(C1CCC(=O)NC1=O)C2=O` (stereo not shown) [Compound D12, N-[[2,6-dimethoxy-4-(2-methyl-1-oxo-1,2-dihydro-2,7-naphthyridin-4-yl)phenyl]methyl]-5-[[2-(2,6-dioxopiperidin-3-yl)-1,3-dioxo-2,3-dihydro-1H-isoindol-4-yl]oxy]-N-methylpentanamide], the IC50 in assay [1] is less than 10 nM. Moreover, the DC50 in assay [2] is less than 10 nM.
Compound `COc1cc(-c2cn(C)c(=O)c3cnccc23)cc(OCC(=O)NCCCCCCCCNc2cccc3c2C(=O)N(C2CCC(=O)NC2=O)C3=O)c1CN(C)C` (stereo not shown) [Compound D9, 2-(2-((dimethylamino)methyl)-3-methoxy-5-(2-methyl-1-oxo-1,2-dihydro-2,7-naphthyridin-4-yl)phenoxy)-N-(8-((2-(2,6-dioxopiperidin-3-yl)-1,3-dioxoisoindolin-4-yl)amino)octyl)acetamide] yielded an IC50 in assay [1] of 10 to 100 nM. Besides, in assay [2], the DC50 was less than 10 nM.
For the compound `COc1cc(-c2cn(C)c(=O)c3cnccc23)cc(OC)c1CN(C)CCOCCOCC(=O)N[C@H](C(=O)N1C[C@H](O)C[C@H]1C(=O)NCc1ccc(-c2scnc2C)cc1)C(C)(C)C` [Compound D20], the IC50 in assay [1] was in the range of 10 to 100 nM. The DC50 in assay [2] was greater than 1000 nM.
For `COc1cc(-c2cn(C)c(=O)c3cnccc23)cc(OC)c1CN(C)CCN(C)CCOCCOc1cccc2c1C(=O)N(C1CCC(=O)NC1=O)C2=O` (stereo not shown) [Compound D1, 4-[2-(2-[[2-([[2,6-dimethoxy-4-(2-methyl-1-oxo-2,7-naphthyridin-4-yl)phenyl]methyl](methyl)amino)ethyl](methyl)amino]ethoxy)ethoxy]-2-(2,6-dioxopiperidin-3-yl)isoindole-1,3-dione; formic acid], in that order: 10 to 100 nM and 100 to 1000 nM.
In assay [1], `COc1cc(-c2cn(C)c(=O)c3cnccc23)cc(OC)c1CN(C)C(=O)CCCOc1cccc2c1C(=O)N(C1CCC(=O)NC1=O)C2=O` (stereo not shown) [Compound D11, N-[[2,6-dimethoxy-4-(2-methyl-1-oxo-1,2-dihydro-2,7-naphthyridin-4-yl)phenyl]methyl]-4-[[2-(2,6-dioxopiperidin-3-yl)-1,3-dioxo-2,3-dihydro-1H-isoindol-4-yl]oxy]-N-methylbutanamide] had an IC50 of less than 10 nM. Further, the DC50 in assay [2] was less than 10 nM.
For `COc1cc(-c2cn(C)c(=O)c3cnccc23)cc(OC)c1CN(C)CC(=O)NCCCCCNc1cccc2c1C(=O)N(C1CCC(=O)NC1=O)C2=O` (stereo not shown) [Compound D3, 2-([[2,6-dimethoxy-4-(2-methyl-1-oxo-1,2-dihydro-2,7-naphthyridin-4-yl)phenyl]methyl](methyl)amino)-N-(5-[[2-(2,6-dioxopiperidin-3-yl)-1,3-dioxo-2,3-dihydro-1H-isoindol-4-yl]amino]pentyl)acetamide formic acid], the 50% inhibitory concentration (IC50) in assay [1] lay within 10 to 100 nM. The DC50 in assay [2] was 10 to 100 nM.
`COc1cc(-c2cn(C)c(=O)c3cnccc23)cc(OC)c1CN(C)Cc1cccc2c1C(=O)N(C1CCC(=O)NC1=O)C2=O` (stereo not shown) [Compound D15, 4-(((2,6-dimethoxy-4-(2-methyl-1-oxo-1,2-dihydro-2,7-naphthyridin-4-yl)benzyl)(methyl)amino)methyl)-2-(2,6-dioxopiperidin-3-yl)isoindoline-1,3-dione formic acid] yielded an IC50 in assay [1] of 10 to 100 nM. In addition, the DC50 in assay [2] was greater than 1000 nM.
The compound `COc1cc(OCC(=O)NCCCCCCCCNc2cccc3c2C(=O)N(C2CCC(=O)NC2=O)C3=O)cc(-c2cn(C)c(=O)c3cnccc23)c1` (stereo not shown) [Compound D6, N-(8-((2-(2,6-dioxopiperidin-3-yl)-1,3-dioxoisoindolin-4-yl)amino)octyl)-2-(3-methoxy-5-(2-methyl-1-oxo-1,2-dihydro-2,7-naphthyridin-4-yl)phenoxy)acetamide] showed an IC50 in assay [1] of 10 to 100 nM. Besides, the DC50 in assay [2] is less than 10 nM.
For `COc1cc(NCC(=O)NCCCCCCCCNc2cccc3c2C(=O)N(C2CCC(=O)NC2=O)C3=O)cc(-c2cn(C)c(=O)c3cnccc23)c1` (stereo not shown) [Compound D8, N-(8-[[2-(2,6-dioxopiperidin-3-yl)-1,3-dioxo-2,3-dihydro-1H-isoindol-4-yl]amino]octyl)-2-[[3-methoxy-5-(2-methyl-1-oxo-1,2-dihydro-2,7-naphthyridin-4-yl)phenyl]amino]acetamide formic acid], the IC50 in assay [1] was 10 to 100 nM. Also, the DC50 in assay [2] was less than 10 nM.
